Data taken from US20040186117A1, “Marker” (priority 2001, published 2004).
Where “and” joins values, the source holds several entries; their conditions need not be identical. Equal entries are not always repeated. Entries after “also recorded” stand apart in the source; their conditions may differ.

Assays:
[1] = system: RB phosphorylation (Ser780, Ser608) in HT29 cells; assay: Western blotting for RB phosphorylation in HT29 cells; format: cell-based, human; conditions: for time of loss of RB phosphorylation after exposure: HT29, 50 μM; for effect on RB phosphorylation: HT29, equitoxic (3×96 h IC50) concentration, 24 h
Text: (§1) This antibody was selected as a representative marker for all tested phosphorylation sites of RB (see Section 2). […] A general loss of RB phosphorylation is indicated by a switch from a broad band to a thin, more rapidly migrating band for total RB (see Section 2, FIG. 9).
(§2) Samples were harvested for western blotting or for cell cycle analysis by FACS. […] Since validating the original phospho-specific antibodies, a Ser608 antibody became available from Dr Sibylle Mittnacht. This site is potentially phosphorylated by CDK4/cyclin D1 and CDK2/cyclin A (Zarkowska and Mittnacht, J. Biol Chem (1997) 9:272 12738-46).

[2] = system: RB phosphorylation (Ser780) in KM12 cells; conditions: KM12, 50 μM
Text: as §1, §2

[3] = system: ERK1/2 phosphorylation in HT29 cells; assay: Western blotting for phospho-ERK1/2 in HT29 cells; format: cell-based, human; conditions: for effect on ERK phosphorylation: HT29, equitoxic (3×96 h IC50) concentration, 24 h
[4] = system: ERK1/2 phosphorylation in KM12 cells; assay: Western blotting for phospho-ERK1/2 in KM12 cells; format: cell-based, human
[5] = system: c-FOS protein in HT29 cells; conditions: for effect on c-FOS protein level: HT29, 50 μM
[6] = system: ELK-1 phosphorylation (Ser383) in HT29 cells
cyclin D1 in HT29 cells = assay: Western blotting for cyclin D1 expression in HT29 cells; conditions: HT29, 50 μM
[7] = HT29, 10 μM with 50 μM R-roscovitine

Row | SMILES | time of loss of RB phosphorylation after exposure [1] | effect on RB phosphorylation [1] | effect on ERK phosphorylation [3] | effect on c-FOS protein level [5] | effect on cyclin D1 expression (cyclin D1 in HT29 cells) | other results
1 | CC[C@H](CO)Nc1nc(NCc2ccccc2)c2ncn(C(C)C)c2n1 [R-roscovitine, 2-(R)-(1-ethyl-2-hydroxyethylamino)-6-benzylamino-9-isopropylpurine] | 12 to 24 h and 24 h | inhibited RB phosphorylation | induced ERK phosphorylation | induction of c-FOS protein | inhibited the expression | time of loss of RB phosphorylation after exposure [2]: 12 to 24 h; phospho-ERK1/2 level at 24 h ([3]; HT29, 50 μM time course): remaining above basal levels; time of onset of induction of ERK phosphorylation ([3]; HT29, 50 μM time course): 1 h; time at which induction of ERK phosphorylation was observed ([3]; HT29, 50 μM, experiment with U0126 (FIG. 5B)): 4 to 24 h; effect on phosphorylated ERK1/2 ([3]; HT29, increasing concentrations, 24 h exposure): increase of phosphorylated ERK1/2; kinetics of induction of ERK phosphorylation compared with HT29 ([4]; KM12, 50 μM time course): slower kinetics; effect on phosphorylated ERK1/2 ([4]; KM12, increasing concentrations, 24 h exposure): increase of phosphorylated ERK1/2; time at which an increase of c-FOS protein was detected ([5]; HT29, 50 μM time course): 12 to 24 h; effect on ELK-1 phosphorylation ([6]; HT29, 50 μM, after 4 h): strong induction
2 | O=C1Cc2c([nH]c3ccc([N+](=O)[O-])cc23)-c2ccccc2N1 [alsterpaullone] | – | failed to inhibit RB phosphorylation | fails to induce; also recorded: no effect upon ERK | – | – | –
3 | CN1CC[C@H](c2c(O)cc(O)c3c(=O)cc(-c4ccccc4Cl)oc23)[C@H](O)C1 [flavopiridol] | – | failed to inhibit RB phosphorylation | fails to induce; also recorded: no effect upon ERK | – | – | –
4 | CC(C)[C@H](CO)Nc1nc(Nc2cccc(Cl)c2)c2ncn(C(C)C)c2n1 [purvalanol A] | – | inhibited RB phosphorylation | fails to induce; also recorded: failed to induce ERK phosphorylation | – | – | –
5 | CC[C@H](CO)Nc1nc(NCc2ccccc2)c2ncn(C(C)C)c2n1 (racemic) [roscovitine] | 24 h | – | – | increased levels | decreased levels | –
6 | N#CC(=C(/N)Sc1ccccc1N)/C(C#N)=C(\N)Sc1ccccc1N [U0126, reference compound] | – | – | – | – | – | effect on R-roscovitine-induced ERK phosphorylation [3, 7]: prevented the induction; effect on R-roscovitine-induced increase in c-FOS [5, 7]: blocked; effect on R-roscovitine-induced ELK-1 phosphorylation [6, 7]: blocked the phosphorylation
